Source: patent publication US20250170114A1, “METHODS OF TREATMENT USING T-TYPE CALCIUM CHANNEL MODULATORS” (Praxis Precision Medicines, Inc., priority 2022, published 2025)

Tested on: participants with ET
Assay: Phase 2 trial: treatment-emergent adverse events (TEAEs)
Type: in vivo
Conditions: for SOC Nervous System Disorders / SOC Psychiatric Disorders / SOC Vascular Disorders / Any TEAE / PT Cognitive disorder / PT Constipation / PT Dizziness / PT Fatigue / PT Insomnia / SOC Gastrointestinal Disorders / SOC General Disorders and Administration Site Conditions / SOC Musculoskeletal and Connective Tissue Disorders: Part B
Description: Part A of the clinical trial was open-label and assessed the safety and tolerability of the study drug, as well as the overall magnitude and pattern of change in ET severity.
Part B of the clinical trial consisted of both an open-label titration phase and a randomized, double-blind, placebo-controlled withdrawal phase. Part B assessed the safety and tolerability of the study drug, as well as the overall magnitude and pattern of change in ET severity and the duration of that effect. […] In the randomized, double-blind, placebo-controlled withdrawal phase, participants were either maintained on their final open-label dose or switched to placebo for an additional 14 days (Days 43 to 56).
Key safety measures included clinical laboratory evaluations, 12-lead ECG, C-SSRS, and vital signs. Key efficacy assessments included the TETRAS Performance subscale, TETRAS Upper Limb using accelerometry, CGI, and PGI-C. Blood samples were obtained for the determination of study drug plasma concentrations using a validated bioanalytical method and may also be used for method development and/or metabolite characterization.
On Day 1, participants received a 20 mg dose of study drug on an empty stomach (at least 1 hour before breakfast). Participants remained in a clinical setting under medical observation for approximately 6 hours. TETRAS Performance assessments were performed before dosing and 6 hours (±2) post-dose. For dosing on Day 2 through Day 41, participants were instructed to dose QAM at least 1 hour before breakfast at home. Participants continued taking study drug 20 mg QAM at home through Day 3. […] On Day 4, participants escalated to 40 mg QAM through Day 7, when they returned to the clinic for safety assessments and efficacy testing. On Day 8, participants escalated to 60 mg QAM through Day 14. […] On Day 15, participants escalated to 80 mg QAM through Day 21, when they returned to the clinic for safety assessments and efficacy testing. On Day 22, participants escalated to 100 mg QAM through Day 28. […] On Day 29, participants escalated to 120 mg QAM through Day 42, when they returned to the clinic for safety assessments and efficacy testing. The dose on Day 42 was taken in the clinic. On Day 35, participants received a telephone call from site staff to inquire about AEs and concomitant medications. On Day 41, participants completed a TETRAS Performance Upper Limb assessment via a telehealth visit. […] Participants could only change to a lower dose level once, and no dose changes were allowed to occur after Day 36.
In both phases, key safety measures included clinical laboratory evaluations, 12-lead ECG, C-SSRS, and vital signs. Key efficacy assessments included the TETRAS Performance subscale, TETRAS Upper Limb using accelerometry, CGI, PGI-C, TETRAS ADL Subscale, QUEST, BDI-II, and BAI. Blood samples were obtained for the determination of study drug and metabolite plasma concentrations.

[1] = open-label titration phase of Part B
[2] = randomized-withdrawal phase of Part B, participants receiving study drug

Compound: CC(C)(C)NC(=O)CN1CCC(CNC(=O)c2cc(F)cc(Cl)c2)CC1.Cl [Study drug]
- SOC Nervous System Disorders (40 mg, N = 15): 4 n (%)
- SOC Psychiatric Disorders (40 mg, N = 15): 2 n (%)
- SOC Vascular Disorders (40 mg, N = 15): 0 n (%)
- Any TEAE (60 mg, N = 12): 8 n (%)
- PT Cognitive disorder (60 mg, N = 12): 1 n (%)
- PT Constipation (60 mg, N = 12): 0 n (%)
- PT Dizziness (60 mg, N = 12): 2 n (%)
- PT Fatigue (60 mg, N = 12): 2 n (%)
- PT Insomnia (60 mg, N = 12): 0 n (%)
- SOC Gastrointestinal Disorders (60 mg, N = 12): 0 n (%)
- SOC General Disorders and Administration Site Conditions (60 mg, N = 12): 3 n (%)
- SOC Musculoskeletal and Connective Tissue Disorders (60 mg, N = 12): 2 n (%)
- SOC Nervous System Disorders (60 mg, N = 12): 8 n (%)
- SOC Psychiatric Disorders (60 mg, N = 12): 1 n (%)
- SOC Vascular Disorders (60 mg, N = 12): 2 n (%)
- Any TEAE (80 mg, N = 10): 4 (40.0) n (%)
- PT Cognitive disorder (80 mg, N = 10): 0 n (%)
- PT Constipation (80 mg, N = 10): 1 (10.0) n (%)
- PT Dizziness (80 mg, N = 10): 0 n (%)
- PT Fatigue (80 mg, N = 10): 0 n (%)
- PT Insomnia (80 mg, N = 10): 0 n (%)
- SOC Gastrointestinal Disorders (80 mg, N = 10): 2 (20.0) n (%)
- SOC General Disorders and Administration Site Conditions (80 mg, N = 10): 0 n (%)
- SOC Musculoskeletal and Connective Tissue Disorders (80 mg, N = 10): 0 n (%)
- SOC Nervous System Disorders (80 mg, N = 10): 2 (20.0) n (%)
- SOC Psychiatric Disorders (80 mg, N = 10): 0 n (%)
- SOC Vascular Disorders (80 mg, N = 10): 0 n (%)
- Any TEAE (100 mg, N = 9): 1 (11.1) n (%)
- PT Cognitive disorder (100 mg, N = 9): 0 n (%)
- PT Constipation (100 mg, N = 9): 1 (11.1) n (%)
- PT Dizziness (100 mg, N = 9): 0 n (%)
- PT Fatigue (100 mg, N = 9): 0 n (%)
- PT Insomnia (100 mg, N = 9): 0 n (%)
- SOC Gastrointestinal Disorders (100 mg, N = 9): 1 (11.1) n (%)
- SOC General Disorders and Administration Site Conditions (100 mg, N = 9): 0 n (%)
- SOC Musculoskeletal and Connective Tissue Disorders (100 mg, N = 9): 0 n (%)
- SOC Nervous System Disorders (100 mg, N = 9): 0 n (%)
- SOC Psychiatric Disorders (100 mg, N = 9): 0 n (%)
- SOC Vascular Disorders (100 mg, N = 9): 0 n (%)
- Any TEAE (120 mg, N = 9): 3 (33.3) n (%)
- PT Cognitive disorder (120 mg, N = 9): 0 n (%)
- PT Constipation (120 mg, N = 9): 1 (11.1) n (%)
- PT Dizziness (120 mg, N = 9): 0 n (%)
- PT Fatigue (120 mg, N = 9): 0 n (%)
- PT Insomnia (120 mg, N = 9): 0 n (%)
- SOC Gastrointestinal Disorders (120 mg, N = 9): 1 (11.1) n (%)
- SOC General Disorders and Administration Site Conditions (120 mg, N = 9): 0 n (%)
- SOC Musculoskeletal and Connective Tissue Disorders (120 mg, N = 9): 0 n (%)
- SOC Nervous System Disorders (120 mg, N = 9): 1 (11.1) n (%)
- SOC Psychiatric Disorders (120 mg, N = 9): 1 (11.1) n (%)
- SOC Vascular Disorders (120 mg, N = 9): 0 n (%)
- Any TEAE (Overall, N = 17): 15 n (%)
- PT Cognitive disorder (Overall, N = 17): 4 n (%)
- PT Constipation (Overall, N = 17): 6 n (%)
- PT Dizziness (Overall, N = 17): 6 n (%)
- PT Fatigue (Overall, N = 17): 3 n (%)
- PT Insomnia (Overall, N = 17): 3 n (%)
- SOC Gastrointestinal Disorders (Overall, N = 17): 8 n (%)
- SOC General Disorders and Administration Site Conditions (Overall, N = 17): 5 n (%)
- SOC Musculoskeletal and Connective Tissue Disorders (Overall, N = 17): 3 n (%)
- SOC Nervous System Disorders (Overall, N = 17): 12 n (%)
- SOC Psychiatric Disorders (Overall, N = 17): 4 n (%)
- SOC Vascular Disorders (Overall, N = 17): 2 n (%)
- severity of treatment emergent adverse events (TEAEs) (Phase 2 trial overall): mild to moderate
- discontinuation of participants during the titration period (accelerated titration regimen): a third
- overall safety and tolerability (doses up to 120 mg): generally safe and well tolerated
- Drug-related TEAE cognitive disorder [1]: 4 participants
- Drug-related TEAE dizziness [1]: 6 participants
- Drug-related TEAE paraesthesia [1]: 2 participants
- participants experiencing TEAEs considered related to study drug [1]: 70.6%
- participants who experienced at least 1 TEAE [1]: 88.2%
- serious adverse event (SAE) experienced (open-label titration phase of Part B, considered unrelated to study drug): One mild SAE of cyst
- participants who experienced TEAEs (randomized withdrawal phase of Part B, study drug group): 16.7%
- ongoing AE constipation that had emerged during open-label titration [2]: 3 participants
- ongoing AE photosensitivity/photophobia that had emerged during open-label titration [2]: 2 participants
